In US20040062780A1, “Compositions and methods useful for the reduction of fine lines and wrinkles” (priority 2002, published 2004):
Blank lines part the entries; values can stand above or below the molecule they belong to.

Tests used:
[1] = Spontaneous liposome formation of single lipids mixed with aqueous solution; format: physicochemical
Method: Lipids were tested at 2 weight percent in aqueous solution. Note that GDL means glycerol dilaurate, GDO means glycerol dioleate, GDM means glycerol dimyristate, GDP means glycerol dipalmitate, and GDS means glycerol distearate. For each lipid, the number after “PEG” indicates the numbers of C2H4O subunits in the PEG chain. The unsaturated dioleate lipids have similar packing parameters to the saturated dimyristate lipids.
Single lipids were tested for their ability to spontaneously form liposomes when mixed with an aqueous solution. PEG-12 GDO was obtained from Global 7 (New Jersey). All other lipids were synthesized for the experiment (see Table 1). For each experiment, water and lipid were separately equilibrated at the appropriate temperature. Two weight percent lipid was added to the aqueous solution, and the solution was analyzed for the presence of liposomes by optical light microscopy, cryo TEM, freeze fracture TEM, or hot stage microscopy.

[2] = Dissolution of compounds in PEG-12 GDO lipid; format: physicochemical
Method: It will be appreciated that, while liposomes form spontaneously at the temperature of formation, cooling of liposomes after formation results in liposomes in trapped kinetic states. To minimize distortions in liposome structure upon such cooling, sterols such as cholesterol may be mixed with the lipid before liposome formation. It has been observed that cholesterol may be dissolved in PEG-12 GDO at up to about 10 percent by weight.
Tretinoin (all-trans retinoic acid), 6 mg, was dissolved in 500 μl of PEG-12 Glyceryl Dioleate. […] Distilled water, […], was added to the mixture and gently mixed. This yielded a concentration of 1 mg/ml. […] This solution can easily be incorporated into a cream, gel or lotion dosage form.

- Spontaneous Liposomes at 20° C. ([1]; 2 weight percent lipid in aqueous solution, 20° C.): YES
- Spontaneous Liposomes at 37° C. ([1]; 2 weight percent lipid in aqueous solution, 37° C.): YES
- Spontaneous Liposomes at 60° C. ([1]; 2 weight percent lipid in aqueous solution, 60° C.): YES
Molecule: PEG-12 Glyceryl Dioleate [PEG-12 GDO]
- spontaneous liposome formation ([1]; all temperatures tested): spontaneously forms liposomes at all temperatures tested

- amount dissolved in PEG-12 GDO ([2]; in PEG-12 GDO): up to 10 percent by weight
Molecule: CC(C)CCC[C@@H](C)[C@H]1CC[C@H]2[C@@H]3CC=C4C[C@@H](O)CC[C@]4(C)[C@H]3CC[C@]12C [cholesterol]

- dissolution in PEG-12 Glyceryl Dioleate ([2]; 6 mg in 500 μl of PEG-12 Glyceryl Dioleate): Dissolution was complete
Molecule: CC1=C(/C=C/C(C)=C/C=C/C(C)=C/C(=O)O)C(C)(C)CCC1 [Tretinoin, all-trans retinoic acid, reference compound]
